Values quoted from earlier work in article PMC7582876, “Antiproliferative Properties of a Few Auranofin-Related Gold(I) and Silver(I) Complexes in Leukemia Cells and their Interferences with the Ubiquitin Proteasome System” (Molecules, 2020).

System: CEM/ADR5000 cells
Design: method as in PMID 18413831
Settings: ref [27]; cited from earlier work

## COc1cccc2c1C(=O)c1c(O)c3c(c(O)c1C2=O)C[C@@](O)(C(=O)CO)C[C@@H]3O[C@H]1C[C@H](N)[C@H](O)[C@H](C)O1 [doxorubicin, Doxorubicin]
  resistance to doxorubicin: more than 1000 fold
